What all share (type): cell-based
Experiment [1] concerns the target T1, human α5β2γ2 GABAΑ receptor (Homo sapiens, UniProt P31644+P47870).
T1 construct: expressed in transfected cells; host or cells: HEK background (HEK293 Flp-In stably expressing NPBWR2), transient α:β:γ 1:1:2
Put plainly: FMP assay at α5β2γ2 GABAA receptors in HEK cells. As to the method: (§1) HEK293 cells were maintained in DMEM containing GlutaMAX-I, supplemented with 10% FBS and 1% penicillin-streptomycin and incubated at 37 °C and a humidity of 5% CO2. For expression of δ-containing GABAΑ receptors, a HEK293 Flp-In^ΤΜ cell line stably expressing the human GABAΑ δ-subunits (referred to as δ-HEK) was used and the γ-containing subtypes was expressed in a background HEK293 Flp-In^ΤΜ cell line stably expressing the G-protein coupled peptide receptor NPBWR2 (referred to as HEK background)[26], both positively selected for using 200 μg/mL hygromycin B. α1β2γ2 receptors were stably expressed in a HEK293 cell line maintained as above but with no selection (gift from Marianne L. Jensen, Neurosearch).
(§2) To express recombinant GABAΑ receptors human α1, α2, α3, α5, α6, β2, γ2 (pcDNA3.1/Zeo) and α4, β1 (pUNIV)[26] subunit cDNA were transiently transfected into either δ-HEK or HEK background cells. δ-HEK cells were transfected with α- and β-subunits in a 1:1 ration whereas HEK background cells were transfected with α-, β- and γ-subunits in a 1:1:2 ratio. Human BGT1 (pcDNA5/FRT)[43] was transiently transfected into the δ-HEK cell line. δ-HEK cells transfected for whole-cell patch-clamp recordings were co-transfected with green fluorescent protein (GFP) as well as α- and β-subunits in a 0.5:1:1 ratio (0.8 μg + 1.6 μg + 1.6 μg in a 6 cm dish) in order to identify transfected cells. The transfection was carried out using Polyfect as transfection reagent according to the manufactures protocol expect for using half the recommended volume of Polyfect.
(§3) The FMP assay was performed as previously described with a few modifications. […] Data was obtained as changes in fluorescence units (∆RFU) by measuring emission at 560 nm caused by excitation at 530 nm. […]
(§4) Data obtained in the FMP assay are given as relative changes in fluorescence units (ΔRFU) by subtracting the average of the baseline fluorescence signal from the peak fluorescence signal after compound addition. […]

Experiment [2] addresses T2, human α4β2δ GABAΑ receptor (Homo sapiens, UniProt P47870+P48169).
T2 construct: expressed in transfected cells; host or cells: δ-HEK (HEK293 Flp-In stably expressing human δ), transiently transfected with α and β 1:1
The experiment can be described thus: FMP assay at α4β2δ GABAA receptors in HEK cells. As to the method:
as §1, §2
(§5) The FMP assay was performed as previously described with a few modifications. Briefly, HEK cells were transfected as described[26] and 16–20 hours later plated (50,000 cells/well in DMEM medium) into clear-bottomed black 96-well plates coated with poly-D-lysine and the assay performed 20–28 hours later. The assay protocol including the FMP blue dye incorporation into membranes was exactly as described in Falk-Petersen et al.[26]. […] Data was obtained as changes in fluorescence units (∆RFU) by measuring emission at 560 nm caused by excitation at 530 nm. Unless otherwise mentioned in the text or figure legends experiments were performed in at least three independent experiments each using three technical replicates. Due to an observed edge effect for the FMP assay, outer wells were not used except for the screening.
Data obtained in the FMP assay are given as relative changes in fluorescence units (ΔRFU) by subtracting the average of the baseline fluorescence signal from the peak fluorescence signal after compound addition. All raw traces were inspected manually and peak signals resulting from compound/buffer addition together with signal artefacts were omitted from the analysis. […]

The target of experiment [3] is T3, human α3β2γ2 GABAΑ receptor (Homo sapiens, UniProt P34903+P47870).
T3 construct: expressed in transfected cells; host or cells: HEK background (HEK293 Flp-In stably expressing NPBWR2), transient α:β:γ 1:1:2
T3 sequence (P34903 29-492): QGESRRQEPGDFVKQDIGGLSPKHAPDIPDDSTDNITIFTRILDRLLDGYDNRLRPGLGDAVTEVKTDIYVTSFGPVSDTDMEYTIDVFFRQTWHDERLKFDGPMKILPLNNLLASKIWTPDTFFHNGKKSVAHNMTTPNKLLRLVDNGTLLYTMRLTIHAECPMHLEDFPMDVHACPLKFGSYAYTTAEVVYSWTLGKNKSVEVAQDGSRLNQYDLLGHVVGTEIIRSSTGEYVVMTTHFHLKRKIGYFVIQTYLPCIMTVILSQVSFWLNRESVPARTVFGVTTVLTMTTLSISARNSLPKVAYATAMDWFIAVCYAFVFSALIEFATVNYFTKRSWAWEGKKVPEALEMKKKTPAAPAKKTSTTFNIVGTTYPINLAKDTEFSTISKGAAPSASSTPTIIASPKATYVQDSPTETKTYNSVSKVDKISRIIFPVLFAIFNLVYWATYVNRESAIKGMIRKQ
T3 sequence (P47870 25-512 limits assumed): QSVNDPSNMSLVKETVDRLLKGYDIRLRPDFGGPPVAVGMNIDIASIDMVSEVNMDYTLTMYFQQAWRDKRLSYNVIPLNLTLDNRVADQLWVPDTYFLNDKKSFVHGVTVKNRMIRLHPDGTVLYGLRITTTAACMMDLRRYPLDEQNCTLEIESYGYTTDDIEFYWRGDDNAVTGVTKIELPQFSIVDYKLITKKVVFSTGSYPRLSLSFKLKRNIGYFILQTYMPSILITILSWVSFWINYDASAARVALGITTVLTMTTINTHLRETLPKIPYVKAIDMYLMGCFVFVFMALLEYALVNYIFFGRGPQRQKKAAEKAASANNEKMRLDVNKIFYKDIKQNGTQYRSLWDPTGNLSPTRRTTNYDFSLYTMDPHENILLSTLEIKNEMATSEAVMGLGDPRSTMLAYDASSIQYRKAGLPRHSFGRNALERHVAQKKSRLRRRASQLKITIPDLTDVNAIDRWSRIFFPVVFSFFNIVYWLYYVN
T3 sequence (P18507 40-475 partner): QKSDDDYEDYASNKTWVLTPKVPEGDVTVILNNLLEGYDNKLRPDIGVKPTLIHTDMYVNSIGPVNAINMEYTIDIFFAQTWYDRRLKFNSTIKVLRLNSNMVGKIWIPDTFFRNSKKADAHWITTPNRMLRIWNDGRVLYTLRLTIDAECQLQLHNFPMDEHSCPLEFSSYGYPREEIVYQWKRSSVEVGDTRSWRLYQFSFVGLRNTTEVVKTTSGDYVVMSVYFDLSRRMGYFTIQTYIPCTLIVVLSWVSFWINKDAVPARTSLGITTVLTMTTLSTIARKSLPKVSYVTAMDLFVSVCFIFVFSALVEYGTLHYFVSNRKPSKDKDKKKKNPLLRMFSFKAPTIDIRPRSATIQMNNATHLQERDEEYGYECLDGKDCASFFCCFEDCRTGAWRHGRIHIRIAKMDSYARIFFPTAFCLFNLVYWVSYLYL
Put plainly: FMP assay at α3β2γ2 GABAA receptors in HEK cells. As to the method: as §1, §2, §3, §4

Experiment [4] concerns the target T4, human α6β2δ GABAΑ receptor (Homo sapiens, UniProt P47870+Q16445).
T4 construct: expressed in transfected cells; host or cells: δ-HEK (HEK293 Flp-In stably expressing human δ), transiently transfected with α and β 1:1
Put plainly: FMP assay at α6β2δ GABAA receptors in HEK cells. How it is done:
as §1, §2, §3, §4

Experiment [5] addresses T5, human α4β1δ GABAΑ receptor (Homo sapiens, UniProt P18505+P48169).
T5 construct: expressed in transfected cells; host or cells: δ-HEK (HEK293 Flp-In stably expressing human δ), transiently transfected with α4 and β1 1:1
The experiment can be described thus: FMP assay at α4β1δ GABAA receptors in HEK cells (screening, concentration-inhibition, Schild analysis). Conditions: for pIC50: vs GABA EC80 0.27–1.0 μM, mean.
Description: We have previously established a FLIPR membrane potential (FMP) assay to study recombinant δ-containing GABAΑRs entailing a HEK293 Flp-In cell line stably expressing the human δ-subunit which is suitable for co-transfection with any desired α/β subunits. Initially, we validated the applicability of the FMP assay for efficient compound screening in 96-well microtiter plates using the human α4β1δ GABAΑR heterologously expressed in HEK cells. This receptor was chosen as we have previously shown this system to be reliable in expressing δ-containing receptors. To this end, we determined the Z′-factor, which is a statistical factor used to measure the suitability of an assay for high throughput screening.
Thus, we went on to further characterize 2027 by making a full concentration-inhibition curve.
as §1, §2
as §5, with “replicates.” for “replicates. Due to an observed edge effect for the FMP assay, outer wells were not used except for the screening.”
Data obtained in the FMP assay are given as relative changes in fluorescence units (ΔRFU) by subtracting the average of the baseline fluorescence signal from the peak fluorescence signal after compound addition. All raw traces were inspected manually and peak signals resulting from compound/buffer addition together with signal artefacts were omitted from the analysis.
The concentration-response curves obtained in the FMP assay for both agonists (determining EC50 values) and antagonists (determining IC50 values) were fitted using the four-parameter concentration-response model: Response=bottom+top−bottom/1+10^[(logEC50-A)⋅nH] EC/IC50 values describe the concentration resulting in the half-maximal response (halfway between top and bottom), and nΗ is the Hill coefficient.

The target of experiment [6] is T6, human α4β1γ2 GABAΑ receptor (Homo sapiens, UniProt P18505+P48169).
T6 construct: expressed in transfected cells; host or cells: HEK background (HEK293 Flp-In stably expressing NPBWR2), transient α:β:γ 1:1:2
T6 sequence (P48169 36-554): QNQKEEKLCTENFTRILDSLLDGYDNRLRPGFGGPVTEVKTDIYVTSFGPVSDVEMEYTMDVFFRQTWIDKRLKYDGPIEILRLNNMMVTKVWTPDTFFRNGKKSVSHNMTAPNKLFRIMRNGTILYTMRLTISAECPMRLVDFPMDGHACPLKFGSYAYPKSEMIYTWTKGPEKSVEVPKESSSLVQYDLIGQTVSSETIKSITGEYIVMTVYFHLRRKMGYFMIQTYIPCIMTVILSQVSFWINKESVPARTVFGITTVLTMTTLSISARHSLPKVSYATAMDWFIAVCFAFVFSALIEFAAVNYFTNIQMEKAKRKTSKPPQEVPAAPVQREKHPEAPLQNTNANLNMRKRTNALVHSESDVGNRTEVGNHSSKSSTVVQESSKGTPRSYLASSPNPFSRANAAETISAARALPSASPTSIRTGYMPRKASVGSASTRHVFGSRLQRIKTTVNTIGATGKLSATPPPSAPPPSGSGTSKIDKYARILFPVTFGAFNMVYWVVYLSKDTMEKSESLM
T6 sequence (P18505 26-474): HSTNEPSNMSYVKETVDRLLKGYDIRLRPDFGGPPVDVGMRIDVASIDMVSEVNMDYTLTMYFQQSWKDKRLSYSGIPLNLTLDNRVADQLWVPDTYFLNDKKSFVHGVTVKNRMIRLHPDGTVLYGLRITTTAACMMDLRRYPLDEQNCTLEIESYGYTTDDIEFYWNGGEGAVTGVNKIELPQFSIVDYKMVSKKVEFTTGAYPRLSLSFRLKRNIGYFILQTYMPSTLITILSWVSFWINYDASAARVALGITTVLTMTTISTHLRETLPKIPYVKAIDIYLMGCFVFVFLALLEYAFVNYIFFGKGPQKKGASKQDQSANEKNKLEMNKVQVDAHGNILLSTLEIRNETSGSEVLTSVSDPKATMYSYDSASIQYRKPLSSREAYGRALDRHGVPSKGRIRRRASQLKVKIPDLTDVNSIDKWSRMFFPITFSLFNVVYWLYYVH
T6 sequence (P18507 40-475 partner): as the sequence (P18507 40-475 partner) above
Put plainly: FMP assay at α4β1γ2 GABAA receptors in HEK cells. How it is done:
as §1, §2, §3, §4

Where [7] appears, read: read-out: pIC50 ± SEM (converted).

Molecules are shown by their SMILES. pIC50, pKd: −log10 of the molar value. Values joined by “and” are separate entries in the source; they are usually repeats but may differ in a detail not shown here. Identical values can stand only once. Like-named read-outs stand apart in the source and are kept apart here.

T4 sequence (Q16445 20-453): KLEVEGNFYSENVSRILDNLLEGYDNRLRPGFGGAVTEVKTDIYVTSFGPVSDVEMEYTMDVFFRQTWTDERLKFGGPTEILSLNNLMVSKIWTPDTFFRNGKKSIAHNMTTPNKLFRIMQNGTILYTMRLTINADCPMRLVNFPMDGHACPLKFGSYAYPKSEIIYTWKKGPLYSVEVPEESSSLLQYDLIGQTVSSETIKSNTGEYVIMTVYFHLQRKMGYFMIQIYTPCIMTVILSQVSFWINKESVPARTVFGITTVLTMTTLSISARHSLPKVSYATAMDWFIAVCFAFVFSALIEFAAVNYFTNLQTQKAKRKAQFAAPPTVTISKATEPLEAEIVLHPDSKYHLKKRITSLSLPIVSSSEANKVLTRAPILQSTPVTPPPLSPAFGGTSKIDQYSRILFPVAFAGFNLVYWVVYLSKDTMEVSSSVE
T4 sequence (P47870 25-512 limits assumed): as the sequence (P47870 25-512 limits assumed) above
T4 sequence (O14764 25-452 partner): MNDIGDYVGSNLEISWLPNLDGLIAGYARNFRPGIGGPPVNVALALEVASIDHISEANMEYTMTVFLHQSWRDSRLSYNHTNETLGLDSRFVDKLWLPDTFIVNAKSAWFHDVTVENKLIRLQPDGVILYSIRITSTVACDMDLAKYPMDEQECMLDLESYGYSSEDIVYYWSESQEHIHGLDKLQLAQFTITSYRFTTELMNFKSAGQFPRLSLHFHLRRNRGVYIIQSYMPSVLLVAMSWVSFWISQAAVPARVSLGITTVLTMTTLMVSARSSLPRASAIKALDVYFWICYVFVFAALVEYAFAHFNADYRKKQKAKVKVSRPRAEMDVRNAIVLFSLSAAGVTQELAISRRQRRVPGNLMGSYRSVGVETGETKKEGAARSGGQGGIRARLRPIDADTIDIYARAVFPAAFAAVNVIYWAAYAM
T5 sequence (P48169 36-554): as the sequence (P48169 36-554) above
T5 sequence (P18505 26-474): as the sequence (P18505 26-474) above
T5 sequence (O14764 25-452 partner): as the sequence (O14764 25-452 partner) above
T2 sequence (P48169 36-554): as the sequence (P48169 36-554) above
T2 sequence (P47870 25-512 limits assumed): as the sequence (P47870 25-512 limits assumed) above
T2 sequence (O14764 25-452 partner): as the sequence (O14764 25-452 partner) above
T1 sequence (P31644 32-462): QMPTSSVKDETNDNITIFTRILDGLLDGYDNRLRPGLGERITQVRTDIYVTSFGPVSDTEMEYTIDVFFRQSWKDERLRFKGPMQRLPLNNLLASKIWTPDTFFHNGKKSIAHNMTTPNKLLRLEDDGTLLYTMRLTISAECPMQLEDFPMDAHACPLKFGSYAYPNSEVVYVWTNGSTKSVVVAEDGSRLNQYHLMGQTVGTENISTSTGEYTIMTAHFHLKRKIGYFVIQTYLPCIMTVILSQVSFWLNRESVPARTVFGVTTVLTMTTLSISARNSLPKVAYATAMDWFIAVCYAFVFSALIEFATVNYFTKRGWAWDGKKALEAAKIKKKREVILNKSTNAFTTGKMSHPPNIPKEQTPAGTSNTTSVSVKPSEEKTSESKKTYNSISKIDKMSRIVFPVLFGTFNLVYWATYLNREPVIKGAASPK
T1 sequence (P47870 25-512 limits assumed): as the sequence (P47870 25-512 limits assumed) above
T1 sequence (P18507 40-475 partner): as the sequence (P18507 40-475 partner) above

In the case of `NCCCC(=O)O` [GABA], the “GABA EC80” value in experiment [1] (α5β2γ2, calculated from GABA potencies) is 3000 nM; in experiment [2] (α4β2δ, calculated from GABA potencies) it was 800 to 1000 nM; in experiment [3] (α3β2γ2, calculated from GABA potencies), 10000 nM; in experiment [4] (α6β2δ, calculated from GABA potencies), 3000 nM; in experiment [5] (calculated from GABA potencies) it was 270 to 1000 nM; in experiment [6] (α4β1γ2, calculated from GABA potencies) it was 4000 to 8000 nM.

`O=C(Nc1cccc(C(=O)N2CCC3(CCNCC3)CC2)c1)c1cccs1` [compound 018, N-(3-(3,9-diazaspiro[5.5]undecane-3-carbonyl)phenyl)thiophene-2-carboxamide]: the pIC50 in experiment [1] was 7.29; in experiment [2] (read-out: IC50) it was 7.17; in experiment [3] (read-out: IC50), 7.10; in experiment [5], 7.05 and 7.06; in experiment [6], 7.43. Besides, the “increased potency at α4β2δ compared to α1β2γ2” value in experiment [2] (IC50 68 nM vs 790 nM) is 12 times. Besides, in experiment [4] (setting [7]), the IC50 was 331 nM. The pKd in experiment [5] (Gaddum/Schild analysis, read-out: KΒ from Schild analysis) is 7.72. Moreover, the “potency of 018 relative to 2027” value in experiment [5] (IC50 ratio) was “approximately 10 times”.

Consider `CC(=O)Nc1cccc(C(=O)N2CCC3(CCNCC3)CC2)c1` [compound 2027, N-(3-(3,9-diazaspiro[5.5]undecane-3-carbonyl)phenyl)acetamide], for which the pIC50 in experiment [1] is 6.23; in experiment [4] (read-out: IC50), 5.38; in experiment [5] it was 5.99; in experiment [6], 6.78. For the same compound, the IC50 in experiment [2] (setting [7]) was 363 nM; in experiment [3] (setting [7]) it was 288 nM. In addition, in experiment [5] (100, 50 and 10 μM in triplicates), the “hit validation, antagonistic effect” value is “showed antagonistic effect”. Also, the inhibition at 10 µM in experiment [5] (HEK293, read-out: inhibition of the GABA EC80 signal, primary screening, 10 μM, singlicates) is above 50%.

A word on the pIC50: it is the IC50 on a negative log10 scale, so that one unit is a factor of ten. For orientation: inhibition means the share of the control response that was lost under treatment.

(Values after publication PMC7308271, “Discovery of a new class of orthosteric antagonists with nanomolar potency at extrasynaptic GABAA receptors” (Scientific Reports, 2020).)
